Experimental findings from PubChem BioAssay AID489024 (Sanford-Burnham Center for Chemical Genomics, 2010) are described below.

Broadly, the EC50 is the concentration giving half of the maximal effect.

Activity calls are given as the source filed them.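 How the source made its calls: active means compounds whose mean EC50, the dose giving half the maximal reporter activation, is at or below a set limit; inactive means the rest.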

The target of this assay is CHO-CHOP luciferase reporter, UPR activation, luminescence. Kind of assay: activators of PERK-eIF2a-CHOP UPR arm, confirmation, CHO-CHOP cells, luciferase luminescence (AID 489024).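 Further: compounds added alone to reporter cells with no tunicamycin stress co-treatment.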
In the case of `S=c1[nH]nc(-c2cc(-c3ccccc3)n[nH]2)n1/N=C/C(Br)=C/c1ccccc1`, the EC50 is 7.79 µM.

As to `Cc1ccc(-c2cc(-c3ccc(C)cc3)[n+](-c3ccccc3)c(-c3ccc(C)cc3)c2)cc1`, the EC50 was 3.77 µM.

As to `FC(F)(F)c1nnc2c(Sc3ccccc3)nc3ccc(Cl)cc3n12`, the EC50 is 3.97 µM.

In the case of `COc1ccc(CC2=CC(=O)c3ccccc3C2=O)cc1`, the EC50 was 12.4 µM.

Regarding `CCCC[C@@H](C)C[C@@H](C)C(=O)N(C)[C@@H](CC(C)C)C(=O)N[C@H](C(=O)N(C)[C@H](C(=O)N1C[C@@H](O)C[C@H]1C(=O)N1C(=O)C=C[C@@H]1C)C(C)C)C(C)OC(C)=O` (stereo not given in full), the 50% effective concentration (EC50) is 10.4 µM.

Take `Oc1ccc(-c2cn3ccccc3n2)cc1O`: the EC50 result is “inactive”.

As to `O=C(/C(=C/c1ccc(Cl)cc1)c1nc2ccccc2[nH]1)c1ccccc1`, the EC50 is 6.57 µM.

For the molecule `CCCCCOc1ccc(N2C(=O)CC(N(O)c3ccccc3)C2=O)cc1` (stereo not given), the EC50 was 12.3 µM.

Turning to `O=C(Nc1nc2c(F)cc(F)cc2s1)c1ccccn1`, the EC50 is 6.35 µM.

`O=C(N/N=C/c1ccccn1)c1cc(-c2ccc(Cl)cc2)nc2ccccc12`: the half-maximal effective concentration (EC50) was 2.51 µM.

Consider `COC(=O)c1cc(=O)n(Cc2ccco2)c(=Nc2ccc(F)c(Cl)c2)s1`, for which the concentration for a half-maximal effect (EC50) is 16.8 µM.

Turning to `O=C(Nc1ccc2oc(-c3ccncc3)nc2c1)c1ccc([N+](=O)[O-])o1`, the EC50 was 0.82 µM.

For the molecule `Cc1ccc(-n2nc3cc(C)c(NC(=S)NC(=O)/C=C/c4ccco4)cc3n2)cc1`, the EC50 is 16.2 µM.

`Cc1ccc2oc(Nc3nc(-c4ccccc4)cc(=O)[nH]3)nc2c1`: the concentration for a half-maximal effect (EC50) is 7.41 µM.

Regarding `COc1cc(/C=C/C(=O)c2ccc3c(c2)OCCO3)cc(Br)c1OCC(=O)N(C)C`, the EC50 is 7 µM.

Take `Cc1ccc(C)c(N=Cc2c(O)c3ccccc3oc2=O)c1`: the EC50 was 6.28 µM.

`COCCN1CSC(=S)N(Cc2ccco2)C1`: the EC50 was > 80 µM (inactive).

Take `Cc1coc2c1C(=O)C(=O)c1c-2ccc2c(C)cccc12`: the EC50 was > 80 µM (inactive).

Regarding `COc1ccc(C(C[N+](=O)[O-])n2nc(C)cc2C)cc1` (stereo not given), the EC50 is 9.15 µM.

Take `O=C(CN(c1cccc(C(F)(F)F)c1)S(=O)(=O)c1ccc(Cl)c([N+](=O)[O-])c1)NCc1ccc(F)cc1`: the EC50 was 11.7 µM.

As for `CCCCCC(=O)Nc1ccc(C(=O)N/N=C/c2ccc([N+](=O)[O-])cc2)cc1`, the EC50 entry is “inactive”.

As to `CCSC1(SCC)N=C(N)C2(C#N)C(c3ccc(F)cc3)C12C#N` (stereo not given), the EC50 was 11 µM.

Take `O=[N+]([O-])c1ccc(C=Nc2ccc(Cl)cc2Cl)s1`: the EC50 was 13.9 µM.

Consider `Oc1ccc(/C=N/Nc2ccnc3cc(Cl)ccc23)cc1O`, for which the EC50 was 6.62 µM.

On to `Cc1c(C#N)c(NC(=O)CCl)n(Cc2cccs2)c1C`, for which the EC50 is > 80 µM (inactive).

Turning to `Brc1ccccc1CN1CCN(Cc2c[nH]c3ccccc23)CC1`, the EC50 is 7.72 µM.

Consider `Cc1ccc(/C=C2\CCC3=C2OC(N)=C(C#N)C3c2ccc(C)cc2)cc1` (stereo not given), for which the EC50 was 4.55 µM.

With `C/C(=N\NC(=O)C(c1ccccc1)c1ccccc1)c1ccccn1`, the EC50 is 16 µM.

For `O=c1cc(C(Cl)(Cl)Cl)oc2c1ccc1ccccc12`, the EC50 was > 80 µM (inactive).

As to `CC(NC(=O)CN(c1cccc(C(F)(F)F)c1)S(=O)(=O)c1ccc(Cl)c([N+](=O)[O-])c1)c1ccccc1` (stereo not given), the EC50 is 8.07 µM.

As to `O=C(Cn1cc(/C=C\[N+](=O)[O-])c2ccccc21)Nc1ccccc1`, the EC50 was 7.5 µM.

`Cc1c(C(=O)c2no[n+]([O-])c2C(=O)c2cnn(C)c2C)cnn1C`: the EC50 is > 80 µM (inactive).

As for `COc1ccc(-c2cc(C(F)F)n3ncc(C(=O)n4ccnc4C)c3n2)cc1`, the EC50 was 13.3 µM.

For `O=C(C#Cc1cccc([N+](=O)[O-])c1)c1ccccc1`, the EC50 was 8.96 µM.

Consider `Oc1ccc(/C=N/Nc2nc(N3CCCC3)nc(N3CCCC3)n2)cc1O`, for which the EC50 is 2.93 µM.

For `COc1ccc2cc(C)c3nnc(SCC(=O)Nc4nc(-c5ccc(F)cc5)cs4)n3c2c1`, the EC50 was 10.7 µM.

For the molecule `COc1ccccc1-c1cc(C(F)(F)F)nc(S(=O)(=O)CCCC(=O)NCc2ccc(F)cc2)n1`, the EC50 was 7.58 µM.

In the case of `COc1cc(C(Nc2ccccn2)c2ccc3ccc(C)nc3c2O)cc(OC)c1O` (stereo not given), the EC50 was 6.83 µM.

Turning to `O=C(N/N=C/c1cccc2cccnc12)c1ccccc1O`, the EC50 is 18.1 µM.

Turning to `CCN1CSC(=S)N(Cc2ccccc2)C1`, the EC50 is 8.48 µM.

On to `COc1cc2nc(=S)n3[nH]c(CCn4nc(C)cc4C)nc3c2cc1OC`, for which the 50% effective concentration (EC50) is 3.93 µM.

Consider `COc1cccc(N=Nc2ccc3cccnc3c2O)c1`, for which the EC50 was 10.2 µM.

`COC(=O)C1=C(C)N(c2ccc(C)c(C)c2)/C(=C/c2cccs2)C1=O`: the EC50 was > 80 µM (inactive).

Regarding `c1ccc(-c2nc(N3CCCCCC3)c3ccccc3n2)nc1`, the EC50 entry was “inactive”.

Regarding `C/C(=N\Nc1ncnc2sc(C)c(C)c12)c1ccccn1`, the EC50 was 5.59 µM.

Regarding `O=C(CSC(=S)N1CCCC1)c1cc(Br)cc(Br)c1O`, the EC50 entry was “inactive”.

Regarding `CS(=O)(=O)c1nc(-c2ccccc2)cc(-c2ccccc2)c1C#N`, the EC50 is 15.3 µM.

As to `Oc1ccc(/C=N/N2CCN(C3c4ccccc4-c4ccccc43)CC2)cc1O`, the EC50 entry is “inactive”.

`C/C(CC(C)(C)C1CCCCC1)=N\NC(N)=S`: the EC50 was 12 µM.

On to `COc1cc(C(=O)Nc2nc(-c3ccc(Cl)cc3)c(C)s2)ccc1OCC(=O)Nc1ccc(F)cc1`, for which the EC50 is 13.3 µM.

In the case of `CC1CCC/C=C/C2CC(O)CC2C(O)/C=C/C(=O)O1` (stereo not given), the EC50 is 1.34 µM.

For `CC1(C)CC(=O)C(=Cc2cn(-c3ccccc3)nc2-c2ccc(Cl)cc2)C(=O)C1`, the EC50 was 6.07 µM.

As to `O=C(NC1CCCC1)C(c1ccc(F)cc1)N(Cc1ccc(F)cc1)C(=O)CCl` (stereo not given), the EC50 is 9.26 µM.

On to `O=c1nc(Nc2cccc(Cl)c2)oc2cc(Cl)oc(=O)c12`, for which the concentration for a half-maximal effect (EC50) was 11.5 µM.

Regarding `CCOC(=O)c1sc(N(Cc2ccccc2)C(=O)CCl)nc1C`, the EC50 is 7.96 µM.

Regarding `Oc1ccc(CN2CCC(Cc3ccccc3)CC2)c2cccnc12`, the EC50 is 5.4 µM.

Turning to `CC(=O)Oc1ccc(OC(C)=O)c(SCCCCCN2CCOCC2)c1`, the EC50 was 16.1 µM.

Turning to `O=C(/C=C/Sc1ccc(C(F)(F)F)cn1)c1ccccc1`, the EC50 was 7.85 µM.

Turning to `CN(C)CC(CCC(CN(C)C)C(O)(c1ccccc1)c1ccccc1)C(O)(c1ccccc1)c1ccccc1` (stereo not given), the half-maximal effective concentration (EC50) is 7.9 µM.

`COc1ccc(/C=C\c2nc(=O)c3ccccc3o2)cc1`: the EC50 is 8.46 µM.

With `O=C(CCl)Nc1cccc(CP(=O)(c2ccccc2)c2ccccc2)c1`, the EC50 is > 80 µM (inactive).

On to `COC(=O)c1ccc(COc2ccccc2/C=C(\C#N)C(=O)Nc2c(C)cccc2C)cc1`, for which the EC50 is 11.8 µM.

In the case of `Cc1cccnc1Nc1nc(-c2ccc(O)c(O)c2)cs1`, the EC50 is 3.48 µM.

As to `N#Cc1cc([N+](=O)[O-])c(-n2nnc3ccccc32)c([N+](=O)[O-])c1`, the EC50 is 18.5 µM.

With `COc1cc(CNc2ccc3[nH]c(=O)[nH]c3c2)cc(Br)c1OCc1ccccc1F`, the EC50 was > 80 µM (inactive).

With `O=C(CCl)N1N=C(c2cccs2)CC1c1ccco1` (stereo not given), the EC50 was > 80 µM (inactive).

With `S=C1SCN(CC2CC2)CN1CC1CC1`, the EC50 result was “inactive”.

For the molecule `COc1ccc(-c2cc(-c3ccccc3)c(C#N)c(S(C)(=O)=O)n2)cc1`, the EC50 is 5.18 µM.

With `Cc1c(C#N)c(NC(=O)CCl)n(Cc2ccccc2)c1C`, the EC50 was 14.4 µM.

Turning to `O=c1c2c3c(sc2ncn1/N=C/c1ccc([N+](=O)[O-])o1)CCCC3`, the EC50 was 7.01 µM.

For `O=C1Nc2ccccc2/C1=C\C(=O)c1ccccc1`, the concentration giving a half-maximal response (EC50) was 14.2 µM.

As to `Oc1ccc(/C=N/N(c2ccccc2)c2ccccc2)cc1O`, the EC50 result is “inactive”.

On to `CCOc1ccc(N2C(=O)CC(N(O)c3ccccc3)C2=O)cc1` (stereo not given), for which the concentration giving a half-maximal response (EC50) was 9.63 µM.

Regarding `Cc1nn(Cc2c(Cl)cccc2Cl)c(C)c1NC(=O)c1cn(-c2ccccc2)nc1-c1ccccc1`, the EC50 was 7.37 µM.

Turning to `Cn1c2ccccc2c2cc(/C=N/NC(=O)c3cc(O)ccc3O)ccc21`, the EC50 was 5.37 µM.

For the molecule `CSc1nnc(NC(=O)c2nc(S(=O)(=O)Cc3cccc(C)c3)ncc2Cl)s1`, the EC50 is > 80 µM (inactive).

In the case of `CCc1ccc(N2C(=O)NC(=O)/C(=C\C=C\c3ccco3)C2=O)cc1`, the EC50 was 7.33 µM.

As to `Cc1ccc(N2C(=O)NC(=O)/C(=C/c3cnn(-c4ccc(C)cc4)c3)C2=O)cc1`, the EC50 is 16.9 µM.

For the molecule `Cn1nc([N+](=O)[O-])c(C(C#N)c2ccccn2)c(Cl)c1=O` (stereo not given), the EC50 was > 80 µM (inactive).

With `N#CC1(C#N)COC23CCCCC2C1(C#N)C(=N)O3` (stereo not given), the EC50 was 19.3 µM.

For `COc1ccc(-c2cc3ccccc3oc2=O)cc1NC(=S)NC(=O)c1ccc2c(c1)OCCO2`, the EC50 was 14.9 µM.

On to `Cc1ccc(C(C)C)c(OCc2ccc(C(=O)N/N=C/c3ccc(O)c(O)c3)cc2)c1`, for which the EC50 is > 80 µM (inactive).

`CCOC(=O)C(CC)(CC)C(=O)/C=C/c1cccc(Br)c1`: the EC50 was 11.8 µM.

For the molecule `COc1cc([N+](=O)[O-])cc(/C=N/NC(=O)c2ccc(NC(=O)c3ccc(C)cc3)cc2)c1O`, the concentration giving a half-maximal response (EC50) was 12.3 µM.

Turning to `CCOc1ccc2c(c1)C(=NNC(=O)c1ccncc1)c1cc(OCC)ccc1-2`, the half-maximal effective concentration (EC50) was 8.63 µM.

On to `O=C(CCl)Nc1cccc(S(=O)(=O)NC2=NCCCCC2)c1`, for which the concentration for a half-maximal effect (EC50) is 17.8 µM.

Consider `CN(C)C(=S)N=Nc1[nH]c2ccccc2c1O`, for which the concentration for a half-maximal effect (EC50) is 6.88 µM.

Consider `COC(=O)c1ccc(-n2c(C)cc(C(=O)CCl)c2C)cc1`, for which the EC50 was 4.62 µM.

Take `COc1ccc(C(=O)Nc2ccccc2C(=O)N/N=C/c2ccccn2)cc1OC`: the EC50 was 6.44 µM.

As for `Cc1ccc(-c2nc(N/N=C/c3cccc([N+](=O)[O-])c3)c3ccccc3n2)cc1`, the EC50 entry was “inactive”.

Regarding `Cc1ccc(C)c(NC(=S)c2ccccn2)c1`, the EC50 result was “inactive”.

For `CSc1nnc(NC(=O)c2nc(S(=O)(=O)Cc3ccccc3F)ncc2Cl)s1`, the EC50 is > 80 µM (inactive).

Turning to `Cc1cc(C(=O)CCl)c(C)n1Cc1ccco1`, the EC50 was 7.35 µM.

As to `COc1ccc(NC(=O)c2sc3nc(N4CCOCC4)c4c(c3c2N)CC(C)(C)OC4)c(OC)c1`, the EC50 was > 80 µM (inactive).

For the molecule `CC1CCCCC1N1CN=C(Nc2nc3ccccc3s2)NC1` (stereo not given), the EC50 entry is “inactive”.
